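These data come from cells grown in 96-well plates and exposed to compound for 48 hours at five concentrations. GI50: concentration for 50% inhibition of growth.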 The source made the active and inactive calls. No stated cut-off is given here; in the data, active = GI50 up to about 1.1 µM and inactive = higher.
Columns and labels:
Experiment in all cases: DTP human tumour cell line panel, 48 h
786-0 = tested on: 786-0
A498 = tested on: A498
A549 = tested on: A549
ACHN = tested on: ACHN
BT-549 = tested on: BT-549
CAKI-1 = tested on: CAKI-1
CCRF-CEM = tested on: CCRF-CEM
COLO 205 = tested on: COLO 205
DU-145 = tested on: DU-145
EKVX = tested on: EKVX
HCC 2998 = tested on: HCC 2998
HCT-116 = tested on: HCT-116
HCT-15 = tested on: HCT-15
HL-60 = tested on: HL-60
HOP-62 = tested on: HOP-62
HOP-92 = tested on: HOP-92
HT-29 = tested on: HT-29
Hs-578T = tested on: Hs-578T
IGROV-1 = tested on: IGROV-1
K562 = tested on: K562
KM12 = tested on: KM12
LOX IMVI = tested on: LOX IMVI
M14 = tested on: M14
MCF7 = tested on: MCF7
MDA-MB-231 = tested on: MDA-MB-231
MDA-MB-435 = tested on: MDA-MB-435
MDA-N = tested on: MDA-N
MOLT-4 = tested on: MOLT-4
Malme-3M = tested on: Malme-3M
NCI-H226 = tested on: NCI-H226
NCI-H23 = tested on: NCI-H23
NCI-H460 = tested on: NCI-H460
NCI-H522 = tested on: NCI-H522
NCI/ADR-RES = tested on: NCI/ADR-RES
OVCAR-3 = tested on: OVCAR-3
OVCAR-4 = tested on: OVCAR-4
OVCAR-5 = tested on: OVCAR-5
OVCAR-8 = tested on: OVCAR-8
PC-3 = tested on: PC-3
RPMI-8226 = tested on: RPMI-8226
RXF 393 = tested on: RXF 393
SF-268 = tested on: SF-268
SF-295 = tested on: SF-295
SF-539 = tested on: SF-539
SK-MEL-28 = tested on: SK-MEL-28
SK-MEL-2 = tested on: SK-MEL-2
SK-MEL-5 = tested on: SK-MEL-5
SK-OV-3 = tested on: SK-OV-3
SN12C = tested on: SN12C
SNB-19 = tested on: SNB-19
SNB-75 = tested on: SNB-75
SW-620 = tested on: SW-620
T47D = tested on: T47D
TK-10 = tested on: TK-10
U-251 = tested on: U-251
UACC-257 = tested on: UACC-257
UACC-62 = tested on: UACC-62
UO-31 = tested on: UO-31

`COc1ccc(-c2cc(=O)c3c(O)c(OC)c(O)cc3o2)cc1O` was tested, and the GI50 (786-0) was 4.95 µM (inactive), the GI50 (A498) was 4.9 µM (inactive) and the GI50 (A549) was 6.4 µM (inactive). For the same molecule, the GI50 (ACHN) was 13.8 µM (inactive), the GI50 (BT-549) was 19.3 µM (inactive) and the GI50 (CAKI-1) was 13.9 µM (inactive). For the same molecule, the GI50 (CCRF-CEM) was 3.7 µM (inactive), the GI50 (COLO 205) was 20.6 µM (inactive) and the GI50 (DU-145) was 7.64 µM (inactive). For the same molecule, the GI50 (EKVX) was 9.25 µM (inactive), the GI50 (HCC 2998) was 6.12 µM (inactive) and the GI50 (HCT-116) was 3.48 µM (inactive). For the same molecule, the GI50 (HCT-15) was 1.9 µM, the GI50 (HL-60) was 1.25 µM (inactive) and the GI50 (HOP-62) was 6.9 µM (inactive). The GI50 (HOP-92) was 15 µM (inactive), the GI50 (HT-29) was 16 µM (inactive) and the GI50 (Hs-578T) was 3.08 µM (inactive). For the same molecule, the GI50 (IGROV-1) was 4.62 µM (inactive), the GI50 (K562) was 0.679 µM (active) and the GI50 (KM12) was 3.18 µM (inactive). The GI50 (LOX IMVI) was 3.51 µM (inactive), the GI50 (M14) was 3.4 µM (inactive) and the GI50 (MCF7) was 3.79 µM (inactive). The GI50 (MDA-MB-231) was 5.51 µM (inactive), the GI50 (MDA-MB-435) was 0.582 µM (active) and the GI50 (MDA-N) was 0.406 µM (active). The GI50 (MOLT-4) was 3.19 µM (inactive), the GI50 (Malme-3M) was 1.3 µM (inactive) and the GI50 (NCI-H226) was 35 µM (inactive). The GI50 (NCI-H23) was 17.7 µM (inactive), the GI50 (NCI-H460) was 3.3 µM (inactive) and the GI50 (NCI-H522) was 1.97 µM (inactive). For the same molecule, the GI50 (NCI/ADR-RES) was 2.69 µM (inactive), the GI50 (OVCAR-3) was 9.04 µM (inactive) and the GI50 (OVCAR-4) was 50.5 µM (inactive). The GI50 (OVCAR-5) was 32.8 µM (inactive), the GI50 (OVCAR-8) was 9.55 µM (inactive) and the GI50 (PC-3) was 10 µM (inactive). The GI50 (RPMI-8226) was 2.45 µM (inactive), the GI50 (RXF 393) was 9.4 µM (inactive) and the GI50 (SF-268) was 10.7 µM (inactive). The GI50 (SF-295) was 2.83 µM (inactive), the GI50 (SF-539) was 2.69 µM (inactive) and the GI50 (SK-MEL-28) was 22.5 µM (inactive). For the same molecule, the GI50 (SK-MEL-2) was 3.93 µM (inactive), the GI50 (SK-MEL-5) was 3.41 µM (inactive) and the GI50 (SK-OV-3) was 6.28 µM (inactive). The GI50 (SN12C) was 6.68 µM (inactive), the GI50 (SNB-19) was 13.6 µM (inactive) and the GI50 (SNB-75) was 3.65 µM (inactive). The GI50 (SW-620) was 3.13 µM (inactive), the GI50 (T47D) was 5.94 µM (inactive) and the GI50 (TK-10) was 68.2 µM (inactive). For the same molecule, the GI50 (U-251) was 5.26 µM (inactive), the GI50 (UACC-257) was 8.02 µM (inactive) and the GI50 (UACC-62) was 4.04 µM (inactive). For the same molecule, the GI50 (UO-31) was 6.27 µM (inactive).

With `Cc1cccc(/C=N/NC(=S)N2CCCCCC2)n1` the GI50 (786-0) was 0.0724 µM (active), the GI50 (A498) was 0.449 µM (active) and the GI50 (A549) was 0.111 µM (active). The GI50 (ACHN) was 0.142 µM (active), the GI50 (BT-549) was 0.512 µM (active) and the GI50 (CAKI-1) was 0.369 µM (active). For the same molecule, the GI50 (CCRF-CEM) was < 0.01 µM (active), the GI50 (COLO 205) was < 0.0269 µM (active) and the GI50 (DU-145) was 0.254 µM (active). For the same molecule, the GI50 (EKVX) was 0.288 µM (active), the GI50 (HCC 2998) was 0.468 µM (active) and the GI50 (HCT-116) was < 0.01 µM (active). The GI50 (HCT-15) was 0.049 µM, the GI50 (HL-60) was < 0.01 µM (active) and the GI50 (HOP-62) was 0.219 µM (active). The GI50 (HOP-92) was 0.519 µM (active), the GI50 (HT-29) was < 0.01 µM (active) and the GI50 (Hs-578T) was 9.59 µM (inactive). For the same molecule, the GI50 (IGROV-1) was < 0.0399 µM (active), the GI50 (K562) was < 0.01 µM (active) and the GI50 (KM12) was 0.23 µM (active). The GI50 (LOX IMVI) was 0.0989 µM (active), the GI50 (M14) was < 0.0271 µM (active) and the GI50 (MCF7) was < 0.01 µM (active). For the same molecule, the GI50 (MDA-MB-231) was < 0.01 µM (active), the GI50 (MDA-MB-435) was 1.3 µM (inactive) and the GI50 (MDA-N) was 0.406 µM (active). For the same molecule, the GI50 (MOLT-4) was < 0.01 µM (active), the GI50 (Malme-3M) was 0.313 µM (active) and the GI50 (NCI-H226) was 1.33 µM (inactive). For the same molecule, the GI50 (NCI-H23) was 0.299 µM (active), the GI50 (NCI-H460) was 0.0977 µM (active) and the GI50 (NCI-H522) was < 0.01 µM (active). For the same molecule, the GI50 (NCI/ADR-RES) was < 0.01 µM (active), the GI50 (OVCAR-3) was < 0.01 µM (active) and the GI50 (OVCAR-8) was 0.0142 µM (active). The GI50 (PC-3) was < 0.0166 µM (active), the GI50 (RPMI-8226) was < 0.01 µM (active) and the GI50 (RXF 393) was 0.515 µM (active). The GI50 (SF-268) was < 0.01 µM (active), the GI50 (SF-295) was 0.331 µM (active) and the GI50 (SF-539) was 0.205 µM (active). The GI50 (SK-MEL-28) was 0.608 µM (active), the GI50 (SK-MEL-2) was 0.546 µM (active) and the GI50 (SK-MEL-5) was 0.0661 µM (active). For the same molecule, the GI50 (SK-OV-3) was 0.556 µM (active), the GI50 (SN12C) was 0.101 µM (active) and the GI50 (SNB-19) was 0.543 µM (active). For the same molecule, the GI50 (SNB-75) was 0.135 µM (active), the GI50 (SW-620) was 0.0462 µM (active) and the GI50 (T47D) was < 0.01 µM (active). The GI50 (U-251) was < 0.0417 µM (active), the GI50 (UACC-257) was 0.0418 µM (active) and the GI50 (UACC-62) was 0.163 µM (active). For the same molecule, the GI50 (UO-31) was 0.103 µM (active).

Reference: ChEMBL document CHEMBL1201862, “PubChem BioAssay data set” (2004)
